Reference: patent US4957923A, “Diuretic or antihypertensive composition” (Fujisawa Pharmaceutical Co., Ltd., priority 1988, dated 1990)

Assays:
[1] = test system: healthy male adult volunteers; test: Diuretic action (human); format: in vivo; settings: mean ± S.D.
Method: To healthy male adult volunteers, 300 mg (the capsule of Example 3 below ×1) (6 men) or 600 mg (the capsule of Example 3 below ×2) (6 men) of compound A was orally […] administered in fasting condition, or 600 mg (the capsule of Example 3 below×2) (6 men) of compound A was orally administered 30 minutes after breakfast. In each group, the 24-hr urine volume before administration and that on day 1 after administration were respectively determined.

DOCA hypertensive rats = test: Antihypertension action (DOCA hypertensive rats); format: in vivo, rat (Wistar)
Method: Male Wistar rats, 10 weeks old, were subjected to left nephrectomy and 2 to 4 days after operation, deoxycorticosterone acetate was administered subcutaneously in a dose of 30 mg/ml/kg twice a week. The animals were given 1% saline for drinking water and the individuals showing a mean blood pressure of ≥150 mmHg at 15 weeks of age were submitted to the experiment. After catheterization, saline for drinking water was replaced with tap water. At the beginning of the experiment, the test rats had mean blood pressures from 152 to 204 mmHg, heart rates from 354 to 462 beats/min. and body weights from 232 to 318 g. 3~5 Animals per group were used.
3 Or 4 days before the beginning of the experiment, one end of a catheter for blood pressure measurement was passed from the femoral artery to the abdominal aorta of each rat and the other end was passed beneath the skin and fixed in exposed position in the dorsocervical region. The drug was orally administered once a day for 5 consecutive days. The rats had been deprived of food for about 3 hours before drug administration. The blood pressure was measured before administration and 5 hours after administration of days 1, 3 and 5. At each blood pressure measurement, the mean blood pressure was observed via a pressure transducer connected to the dorsocervical end of the catheter for blood pressure measurement and the stabilized mean blood pressure was recorded.
Drug was suspended and diluted using a 0.5% solution of methylcellulose and 5ml/kg of the suspension was orally administered.

[2] = test system: healthy male adult volunteers; test: Antihypertensive action (human); format: in vivo; settings: mean ± S.D.
Method: To 6 healthy male adult volunteers, 150 mg of compound A (one capsule each of capsules shown in Examples 1 and 2 below) was orally administered twice a day at a 12-hour interval from 30 minutes after breakfast to 2 hours after supper for 8 consecutive days (except on day 8 when the administration was made only once in the morning) and the systolic blood pressure in standing position was measured.

[3] = 3.2 mg/kg p.o. once a day, Day 1 before administration (baseline)
[4] = 3.2 mg/kg p.o. once a day, Day 3 after 5 hr
[5] = 3.2 mg/kg p.o. once a day, Day 3 before administration
[6] = 3.2 mg/kg p.o. once a day, Day 5 after 5 hr
[7] = 3.2 mg/kg p.o. once a day, Day 5 before administration
[8] = 10 mg/kg p.o. once a day, Day 1 after 5 hr
[9] = 10 mg/kg p.o. once a day, Day 1 before administration (baseline)
[10] = 10 mg/kg p.o. once a day, Day 3 after 5 hr
[11] = 10 mg/kg p.o. once a day, Day 3 before administration
[12] = 10 mg/kg p.o. once a day, Day 5 after 5 hr
[13] = 10 mg/kg p.o. once a day, Day 5 before administration
[14] = 32 mg/kg p.o. once a day, Day 1 after 5 hr
[15] = 32 mg/kg p.o. once a day, Day 1 before administration (baseline)
[16] = 32 mg/kg p.o. once a day, Day 3 after 5 hr
[17] = 32 mg/kg p.o. once a day, Day 3 before administration
[18] = 32 mg/kg p.o. once a day, Day 5 after 5 hr
[19] = 32 mg/kg p.o. once a day, Day 5 before administration

## O=C(O)Cn1c(=O)n(Cc2ccc(Br)cc2F)c(=O)c2ccc(Cl)cc21 [Compound A, 2-[7-Chloro-3-(4-bromo-2-fluorobenzyl)-1,2,3,4-tetrahydro-2,4-dioxoquinazolin-1-yl]acetic acid]
[1]; 300 mg p.o., without breakfast, 0-2 hr
  Urine volume: 95 ± 57 mL
[1]; 300 mg p.o., without breakfast, 2-4 hr
  Urine volume: 136 ± 60 mL
[1]; 300 mg p.o., without breakfast, 4-8 hr
  Urine volume: 328 ± 55 mL
[1]; 300 mg p.o., without breakfast, 8-12 hr
  Urine volume: 340 ± 79 mL
[1]; 300 mg p.o., without breakfast, 12-24 hr
  Urine volume: 609 ± 147 mL
[1]; 300 mg p.o., without breakfast, -24-0 hr (before administration, baseline)
  Urine volume: 902 ± 256 mL
[1]; 300 mg p.o., without breakfast, total 0-24 hr
  Urine volume: 1508 ± 274 mL
[1]; 600 mg p.o., 30 min after breakfast, 0-2 hr
  Urine volume: 130 ± 46 mL
[1]; 600 mg p.o., 30 min after breakfast, 2-4 hr
  Urine volume: 151 ± 19 mL
[1]; 600 mg p.o., 30 min after breakfast, 4-8 hr
  Urine volume: 414 ± 161 mL
[1]; 600 mg p.o., 30 min after breakfast, 8-12 hr
  Urine volume: 507 ± 139 mL
[1]; 600 mg p.o., 30 min after breakfast, 12-24 hr
  Urine volume: 829 ± 240 mL
[1]; 600 mg p.o., 30 min after breakfast, -24-0 hr (before administration, baseline)
  Urine volume: 1234 ± 212 mL
[1]; 600 mg p.o., 30 min after breakfast, total 0-24 hr
  Urine volume: 2031 ± 362 mL
[1]; 600 mg p.o., without breakfast, 0-2 hr
  Urine volume: 64 ± 24 mL
[1]; 600 mg p.o., without breakfast, 2-4 hr
  Urine volume: 82 ± 32 mL
[1]; 600 mg p.o., without breakfast, 4-8 hr
  Urine volume: 292 ± 50 mL
[1]; 600 mg p.o., without breakfast, 8-12 hr
  Urine volume: 393 ± 141 mL
[1]; 600 mg p.o., without breakfast, 12-24 hr
  Urine volume: 863 ± 253 mL
[1]; 600 mg p.o., without breakfast, -24-0 hr (before administration, baseline)
  Urine volume: 982 ± 293 mL
[1]; 600 mg p.o., without breakfast, total 0-24 hr
  Urine volume: 1693 ± 368 mL
DOCA hypertensive rats; 3.2 mg/kg p.o. once a day, Day 1 after 5 hr
  Mean blood pressure: 148 mm Hg
DOCA hypertensive rats; [3]
  Mean blood pressure: 175 mm Hg
  Percentage of change (mean blood pressure): 0.0%
DOCA hypertensive rats; [4]
  Mean blood pressure: 142 mm Hg
  Percentage of change (mean blood pressure): -18.6%
DOCA hypertensive rats; [5]
  Mean blood pressure: 153 mm Hg
  Percentage of change (mean blood pressure): -13.4%
DOCA hypertensive rats; [6]
  Mean blood pressure: 131 mm Hg
  Percentage of change (mean blood pressure): -24.9%
DOCA hypertensive rats; [7]
  Mean blood pressure: 139 mm Hg
  Percentage of change (mean blood pressure): -21.0%
DOCA hypertensive rats; [8]
  Mean blood pressure: 145 mm Hg
  Percentage of change (mean blood pressure): -13.0%
DOCA hypertensive rats; [9]
  Mean blood pressure: 166 mm Hg
  Percentage of change (mean blood pressure): 0.0%
DOCA hypertensive rats; [10]
  Mean blood pressure: 127 mm Hg
  Percentage of change (mean blood pressure): -23.1%
DOCA hypertensive rats; [11]
  Mean blood pressure: 137 mm Hg
  Percentage of change (mean blood pressure): -17.2%
DOCA hypertensive rats; [12]
  Mean blood pressure: 118 mm Hg
  Percentage of change (mean blood pressure): -29.1%
DOCA hypertensive rats; [13]
  Mean blood pressure: 127 mm Hg
  Percentage of change (mean blood pressure): -23.2%
DOCA hypertensive rats; [14]
  Mean blood pressure: 133 mm Hg
  Percentage of change (mean blood pressure): -20.1%
DOCA hypertensive rats; [15]
  Mean blood pressure: 168 mm Hg
  Percentage of change (mean blood pressure): 0.0%
DOCA hypertensive rats; [16]
  Mean blood pressure: 132 mm Hg
  Percentage of change (mean blood pressure): -20.1%
DOCA hypertensive rats; [17]
  Mean blood pressure: 133 mm Hg
  Percentage of change (mean blood pressure): -19.2%
DOCA hypertensive rats; [18]
  Mean blood pressure: 116 mm Hg
  Percentage of change (mean blood pressure): -30.2%
DOCA hypertensive rats; [19]
  Mean blood pressure: 117 mm Hg
  Percentage of change (mean blood pressure): -29.5%
[2]; 150 mg p.o. twice a day for 8 days, Day 9 immediately before breakfast
  Systolic blood pressure in standing position: 113 ± 3 mmHg
[2]; 150 mg p.o. twice a day for 8 days, Day 10 immediately before breakfast
  Systolic blood pressure in standing position: 117 ± 6 mmHg
[2]; 150 mg p.o. twice a day, Day 1 immediately before breakfast (before first dose, baseline)
  Systolic blood pressure in standing position: 121 ± 8 mmHg
[2]; 150 mg p.o. twice a day, Day 2 immediately before breakfast
  Systolic blood pressure in standing position: 113 ± 6 mmHg
[2]; 150 mg p.o. twice a day, Day 3 immediately before breakfast
  Systolic blood pressure in standing position: 114 ± 7 mmHg
[2]; 150 mg p.o. twice a day, Day 4 immediately before breakfast
  Systolic blood pressure in standing position: 114 ± 5 mmHg
[2]; 150 mg p.o. twice a day, Day 5 immediately before breakfast
  Systolic blood pressure in standing position: 110 ± 8 mmHg
[2]; 150 mg p.o. twice a day, Day 6 immediately before breakfast
  Systolic blood pressure in standing position: 114 ± 6 mmHg
[2]; 150 mg p.o. twice a day, Day 7 immediately before breakfast
  Systolic blood pressure in standing position: 116 ± 8 mmHg
[2]; 150 mg p.o. twice a day, Day 8 immediately before breakfast
  Systolic blood pressure in standing position: 117 ± 5 mmHg
